Measured values taken from the supplement of paper PMC11061612.

Tests used:
DSH1 (Bladder Carcinoma) = assay: combination Emax (second highest fraction inhibited in the dose matrix, 72 h); higher = more inhibition; extreme values may be limits of the assay
Procedure, shortened: (§1)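 Cell lines in DMEM/F12 or RPMI with 10% FBS were plated in 1536-well plates, held 24 hours at 37°C, 5% CO2, then given two-drug dose matrices for 72 hours (DMSO typically 0.2%). Viability was read by CellTiter-Glo 2.0 luminescence and scaled as inhibition from 0 (vehicle wells) to 1 (blank wells). Combination Emax is the second-highest inhibition in the matrix; Bliss excess is observed combination effect minus expected EA + EB − EA·EB, EA and EB being single-agent effects.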

[1] = system: DB (B-Cell Non-Hodgkin's Lymphoma); assay: as above
Procedure, shortened: as §1

[2] = system: LU-99A (Non-Small Cell Lung Carcinoma); assay: as above
Procedure, shortened: as §1

[3] = system: HPAC (Pancreatic Carcinoma); assay: as above
Procedure, shortened: as §1

[4] = system: NCI-H1299 (Non-Small Cell Lung Carcinoma); assay: as above
Procedure, shortened: as §1

[5] = system: HT-29 (Colorectal Carcinoma); assay: as above
Procedure, shortened: as §1

[6] = system: SUIT-2 (Pancreatic Carcinoma); assay: as above
Procedure, shortened: as §1

[7] = system: KARPAS-1106P (B-Cell Non-Hodgkin's Lymphoma); assay: as above
Procedure, shortened: as §1

[8] = system: SW1783 (Low Grade Glioma); assay: as above
Procedure, shortened: as §1

[9] = system: MDA-MB-157 (Breast Carcinoma); assay: Bliss excess, mean over the matrix (fraction); higher = more synergy
Procedure, shortened: as §1

[10] = system: KM-H2 (Hodgkin's Lymphoma); assay: as above
Procedure, shortened: as §1

[11] = system: CFPAC-1 (Pancreatic Carcinoma); assay: as above
Procedure, shortened: as §1

[12] = system: 697 (B-Lymphoblastic Leukemia); assay: as above
Procedure, shortened: as §1

RH-1 (Ewing's Sarcoma) = assay: as above
Procedure, shortened: as §1

[13] = system: MDA-MB-231 (Breast Carcinoma); assay: as above
Procedure, shortened: as §1

ES7 (Ewing's Sarcoma) = assay: as above
Procedure, shortened: as §1

J82 (Bladder Carcinoma) = assay: as above
Procedure, shortened: as §1

CAL-78 (Chondrosarcoma) = assay: as above
Procedure, shortened: as §1

[14] = system: G-292-Clone-A141B1 (Osteosarcoma); assay: as above
Procedure, shortened: as §1

[15] = system: IHH-4 (Thyroid Gland Carcinoma); assay: as above
Procedure, shortened: as §1
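Throughout, for Bliss excess, mean over the matrix: after 72 h of two-drug dosing.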

| SMILES | combination Emax (DSH1 (Bladder Carcinoma)) | combination Emax [1] | combination Emax [2] | combination Emax [3] | combination Emax [4] | combination Emax [5] | combination Emax [6] | combination Emax [7] | combination Emax [8] | Bliss excess [9] | Bliss excess [10] | Bliss excess [11] | Bliss excess [12] | Bliss excess (RH-1 (Ewing's Sarcoma)) | Bliss excess [13] | Bliss excess (ES7 (Ewing's Sarcoma)) | Bliss excess (J82 (Bladder Carcinoma)) | Bliss excess (CAL-78 (Chondrosarcoma)) | Bliss excess [14] | Bliss excess [15] |
| --- | --- | --- | --- | --- | --- | --- | --- | --- | --- | --- | --- | --- | --- | --- | --- | --- | --- | --- | --- | --- |
| CN(C)CCCOc1ccc(-c2ccc3ncc4c(c3c2)n(C2CCOCC2)c(=O)n4C)cn1 [AZD0156] + CCN(CCO)CCCOc1ccc2c(Nc3cc(CC(=O)Nc4cccc(F)c4)[nH]n3)ncnc2c1 [AZD2811] (first compound max 1 µM, 7x7, partner max 1 µM) | 0.211 | 0.559 | 0.473 | 0.206 | 0.251 | 0.166 | 0.13 | 0.244 | 0.0598 | -0.0069 | 0.0446 | -0.0713 | -0.015 | -0.0337 | -0.0296 | -0.0172 | 0.0201 | 0.006 | -0.0669 | 0.0153 |
| Cc1cc2ncnn2cc1Nc1ncc2c(n1)n(C1CCOCC1)c(=O)n2C [AZD7648] + C[C@@H]1COCCN1C2=NC(=NC(=C2)C3(CC3)[S@](=N)(=O)C)C4=C5C=CNC5=NC=C4 [AZD6738] (first compound max 10 µM, 7x7, partner max 10 µM) | 0.736 | 0.54 | 0.681 | 0.672 | 0.644 | 0.808 | 0.611 | 0.756 | 0.437 | -0.0029 | 0.0227 | -0.0108 | -0.009 | -0.0016 | 0.037 | 0.074 | -0.0122 | 0.0344 | 0.0274 | 0.0366 |
| Cc1c2c(nn1C)CSCc1cc(n(C)n1)CSc1cc(c3ccccc3c1)OCCCc1c(C(=O)O)n(C)c3c-2c(Cl)ccc13 [AZD5991] + CN(C)CCCOc1ccc(-c2ccc3ncc4c(c3c2)n(C2CCOCC2)c(=O)n4C)cn1 [AZD0156] (first compound max 1 µM, 7x7, partner max 1 µM) | 0.638 | 0.974 | 0.334 | 0.586 | 0.368 | 0.254 | 0.217 | 0.925 | 0.218 | -0.0169 | -0.0139 | 0.0066 | -0.0468 | 0.0081 | -0.0133 | 0.0036 | 0.0127 | -0.0212 | -0.025 | 0.0541 |
| C[C@@H]1COCCN1c1cc(C2([S@](C)(=N)=O)CC2)nc(-c2ccnc3[nH]ccc23)n1 [AZD6738] + O=C(c1cc(Cc2n[nH]c(=O)c3ccccc23)ccc1F)N1CCN(C(=O)C2CC2)CC1 [Olaparib] (first compound max 10 µM, 7x7, partner max 10 µM) | 0.752 | 0.736 | 0.712 | 0.416 | 0.666 | 0.799 | 0.676 | 0.672 | 0.407 | -0.0453 | 0.024 | -0.0069 | 0.0073 | 0.0873 | -0.0335 | 0.0469 | 0.031 | 0.0285 | 0.0195 | 0.0506 |
| CCc1c2c(nc3ccc(O)cc13)-c1cc3c(c(=O)n1C2)COC(=O)[C@]3(O)CC [SN-38] + CN(C)CCCOc1ccc(-c2ccc3ncc4c(c3c2)n(C2CCOCC2)c(=O)n4C)cn1 [AZD0156] (first compound max 0.3 µM, 7x7, partner max 1 µM) | 0.904 | 0.97 | 0.769 | 0.38 | 0.529 | 0.89 | 0.744 | 0.901 | 0.748 | 0.0653 | 0.0794 | -0.0436 | 0.0689 | 0.0845 | 0.0937 | 0.0565 | -0.0299 | -0.0547 | -0.0508 | 0.0457 |
| CN(CCO)CC[C@H](CSc1ccccc1)Nc1ccc(S(=O)(=O)NC(=O)c2ccc(N3CCC([C@@H](O)c4ccccc4-c4ccc(Cl)cc4)CC3)cc2)cc1S(=O)(=O)C(F)(F)F [AZD4320] + CN(C)CCCOc1ccc(-c2ccc3ncc4c(c3c2)n(C2CCOCC2)c(=O)n4C)cn1 [AZD0156] (first compound max 1 µM, 7x7, partner max 1 µM) | 0.369 | 0.933 | 0.292 | 0.371 | 0.149 | 0.169 | 0.0928 | 0.146 | 0.52 | -0.0046 | -0.0038 | -0.0354 | -0.0116 | -0.024 | 0.0319 | 0.0177 | -0.0464 | -0.004 | -0.015 | -0.022 |
| CN(CCO)CC[C@H](CSc1ccccc1)Nc1ccc(S(=O)(=O)NC(=O)c2ccc(N3CCC([C@@H](O)c4ccccc4-c4ccc(Cl)cc4)CC3)cc2)cc1S(=O)(=O)C(F)(F)F [AZD4320] + C[C@@H]1COCCN1C2=NC(=NC(=C2)C3(CC3)[S@](=N)(=O)C)C4=C5C=CNC5=NC=C4 [AZD6738] (first compound max 1 µM, 7x7, partner max 10 µM) | 0.94 | 0.959 | 0.838 | 0.897 | – | 0.936 | 0.522 | 0.849 | 0.669 | -0.0254 | 0.0381 | -0.0077 | 0.013 | 0.0321 | -0.0571 | 0.0638 | -0.0144 | 0.0071 | -0.0265 | -0.0231 |
| CC(=O)c1c(C)c2cnc(Nc3ccc(N4CCNCC4)cn3)nc2n(C2CCCC2)c1=O [Palbociclib] + CN(CC[C@H](CSC1=CC=CC=C1)NC2=C(C=C(C=C2)S(=O)(=O)NC(=O)C3=CC=C(C=C3)N4CCC(CC4)[C@H](C5=CC=CC=C5C6=CC=C(C=C6)Cl)O)S(=O)(=O)C(F)(F)F)CCO [AZD4320] (first compound max 10 µM, 7x7, partner max 1 µM) | – | – | 0.297 | 0.497 | – | 0.498 | 0.354 | – | – | – | -0.0282 | 0.0056 | -0.0718 | -0.0674 | – | – | -0.0667 | -0.0873 | – | – |
| C[C@@H](c1ccc2nccn2c1)n1nnc2ncc(-c3cnn(C)c3)nc21 [Savolitinib] + CN(CC[C@H](CSC1=CC=CC=C1)NC2=C(C=C(C=C2)S(=O)(=O)NC(=O)C3=CC=C(C=C3)N4CCC(CC4)[C@H](C5=CC=CC=C5C6=CC=C(C=C6)Cl)O)S(=O)(=O)C(F)(F)F)CCO [AZD4320] (first compound max 1 µM, 7x7, partner max 1 µM) | – | – | 0.245 | 0.343 | – | 0.172 | 0.241 | – | – | – | -0.0267 | -0.0545 | -0.0412 | 0.0096 | – | – | 0.0168 | -0.0906 | – | – |
| CCc1c2c(nc3ccc(O)cc13)-c1cc3c(c(=O)n1C2)COC(=O)[C@]3(O)CC [SN-38] + O=C(c1cc(Cc2n[nH]c(=O)c3ccccc23)ccc1F)N1CCN(C(=O)C2CC2)CC1 [Olaparib] (first compound max 0.3 µM, 7x7, partner max 10 µM) | 0.915 | 0.96 | 0.649 | 0.246 | 0.544 | 0.936 | 0.728 | 0.943 | 0.862 | 0.0102 | – | 0.0607 | 0.0877 | 0.102 | 0.107 | 0.112 | 0.0532 | – | -0.0332 | 0.0356 |
| C=CCn1c(=O)c2cnc(Nc3ccc(N4CCN(C)CC4)cc3)nc2n1-c1cccc(C(C)(C)O)n1 [AZD1775] + C1CN(CCC1(C(=O)N[C@@H](CCO)C2=CC=C(C=C2)Cl)N)C3=NC=NC4=C3C=CN4 [Capivasertib] (first compound max 3 µM, partner max 3 µM) | 0.789 | 0.893 | 0.623 | 0.636 | 0.793 | 0.834 | 0.586 | 0.909 | 0.688 | -0.0818 | 0.0333 | 0.0135 | 0.0337 | -0.0509 | -0.0181 | – | -0.0184 | -0.0614 | -0.0313 | -0.005 |
| COc1nnc2ccc(N3CCC(c4ccc(OCCN5CCN(C)C(=O)[C@H]5C)cc4)CC3)nn12 [AZD5153] + CN(CC[C@H](CSC1=CC=CC=C1)NC2=C(C=C(C=C2)S(=O)(=O)NC(=O)C3=CC=C(C=C3)N4CCC(CC4)[C@H](C5=CC=CC=C5C6=CC=C(C=C6)Cl)O)S(=O)(=O)C(F)(F)F)CCO [AZD4320] (first compound max 1 µM, 7x7, partner max 1 µM) | – | – | 0.937 | 0.713 | – | 0.774 | 0.306 | – | – | – | -0.0319 | -0.0328 | -0.0709 | -0.0001 | – | – | 0.0292 | 0.132 | – | – |
| Cc1nc(Nc2ncc(C(=O)Nc3c(C)cccc3Cl)s2)cc(N2CCN(CCO)CC2)n1 [Dasatinib] + CC(=O)Nc1cccc(-n2c(=O)n(C3CC3)c(=O)c3c(Nc4ccc(I)cc4F)n(C)c(=O)c(C)c32)c1 [Trametinib] (first compound max 2 µM, 7x7, partner max 1 µM) | 0.505 | 0.28 | 0.943 | 0.893 | 0.795 | 0.981 | 0.671 | 0.741 | 0.43 | -0.0026 | -0.0367 | 0.106 | -0.0461 | -0.0353 | -0.0145 | -0.0112 | -0.0068 | -0.108 | – | 0.112 |
| Cc1c2c(nn1C)CSCc1cc(n(C)n1)CSc1cc(c3ccccc3c1)OCCCc1c(C(=O)O)n(C)c3c-2c(Cl)ccc13 [AZD5991] + C[C@@H](Nc1cc(F)cc(F)c1)c1cc(C(=O)N(C)C)cc2c(=O)cc(N3CCOCC3)oc12 [AZD8186] (first compound max 1 µM, 7x7, partner max 3 µM) | 0.582 | 0.974 | 0.275 | 0.378 | 0.386 | 0.24 | 0.175 | 0.997 | 0.4 | 0.0836 | -0.0338 | -0.0077 | -0.0743 | – | -0.015 | 0.0995 | 0.0359 | -0.0799 | -0.013 | 0.0184 |
